Values quoted from earlier work in PMC4832855 (Cancer Science, 2016).

What was measured:
Conditions in all cases: cited from earlier work
patients = tested on: patients
IGF‐1R = tested on: IGF‐1R
IR = tested on: IR
Jak2 = tested on: Jak2
AurA = tested on: AurA
AurB = tested on: AurB
Btc = tested on: Btc
Src = tested on: Src
Lck = tested on: Lck
Met = tested on: Met
p381 = tested on: p381

Row | SMILES | Activity as monotherapy in early clinical trials (patients) | IC50 (IGF‐1R) [µM] | IC50 (IR) [µM] | IC50 (Jak2) [µM] | IC50 (AurA) [µM] | IC50 (AurB) [µM] | IC50 (Btc) [µM] | IC50 (Src) [µM] | IC50 (Lck) [µM] | IC50 (Met) [µM] | IC50 (p381) [µM] | Overall or progression‐free survival compared to placebo (patients; monotherapy, phase III, metastatic adrenocortical carcinoma)
1 | C[C@@]1(C(=O)Nc2ccc(F)nc2)CCCN1c1nc(Nc2cc(C3CC3)n[nH]2)c2cccn2n1 [BMS‐754807] | only modest activity |  |  |  |  |  |  |  |  |  |  | 
2 | C[C@]1(O)C[C@@H](c2nc(-c3ccc4ccc(-c5ccccc5)nc4c3)c3c(N)nccn32)C1 [Linsitinib] | only modest activity | […] | 0.075 | > 10 | > 10 | > 10 | > 10 | > 10 | > 10 | > 10 | > 10 | did not increase
